Reference: patent US9695155B2, “Herbicidal substituted pyrimidinyloxy benzene compounds” (E. I. DU PONT DE NEMOURS AND COMPANY, priority 2013, dated 2017)

Columns and labels:
ragweed [1] = test: Test A postemergence; format: in vivo, Ambrosia elatior
Procedure, shortened: (§1)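 Compounds in non-phytotoxic solvent with surfactant applied as soil spray preemergence, or postemergence to plants 2-10 cm at one- to two-leaf stage, in loam/sand. After approximately 10 days in greenhouse, injury rated visually versus untreated controls, 0 (no effect) to 100 (complete control).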

ragweed [2] = test: Test A preemergence; format: in vivo, Ambrosia elatior
Procedure, shortened: as §1

barnyardgrass = test: Test A postemergence; format: in vivo, Echinochloa crus-galli
Procedure, shortened: as §1

giant foxtail = test: Test C postemergence; format: in vivo, Setaria faberii; settings: for Plant response rating (0 to 100), Foxtail, Giant: 16 g ai/ha, 0 is no effect, 100 is complete control; for Plant response rating, Foxtail, Giant / Foxtail, Giant plant response rating: scale 0 to 100 (0 no effect, 100 complete control); for Foxtail, Giant plant response rating: 31 g ai/ha
Procedure, shortened: (§2)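 Visual ratings on a 0–100 scale (100 = complete control) were made versus untreated controls after 13–15 greenhouse days. Chemicals in a surfactant-containing non-phytotoxic solvent were applied either preemergence to seeds in loam–sand soil or postemergence to 1- to 4-leaf plants 2–18 cm tall.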

large (Lg) crabgrass [3] = test: Test C postemergence; format: in vivo, Digitaria sanguinalis; settings: for Plant response rating (0 to 100), Crabgrass, Large: 16 g ai/ha, 0 is no effect, 100 is complete control; for Plant response rating, Crabgrass, Large / Crabgrass, Large plant response rating: scale 0 to 100 (0 no effect, 100 complete control); for Crabgrass, Large plant response rating: 31 g ai/ha
Procedure, shortened: as §2

johnsongrass = test: Test C postemergence; format: in vivo, Sorghum halepense; settings: for Plant response rating (0 to 100), Johnsongrass: 16 g ai/ha, 0 is no effect, 100 is complete control; for Plant response rating, Johnsongrass / Johnsongrass plant response rating: scale 0 to 100 (0 no effect, 100 complete control); for Johnsongrass plant response rating: 31 g ai/ha
Procedure, shortened: as §2

corn [4] = test: Test A postemergence; format: in vivo, Zea mays
Procedure, shortened: as §1

wheat, winter = test: Test C postemergence; format: in vivo, Triticum aestivum; settings: for Plant response rating (0 to 100), Wheat: 16 g ai/ha, 0 is no effect, 100 is complete control; for Plant response rating, Wheat / Wheat plant response rating: scale 0 to 100 (0 no effect, 100 complete control); for Wheat plant response rating: 31 g ai/ha
Procedure, shortened: as §2

yellow nutsedge = test: Test C postemergence; format: in vivo, Cyperus esculentus; settings: for Plant response rating (0 to 100), Nutsedge, Yellow: 16 g ai/ha, 0 is no effect, 100 is complete control; for Plant response rating, Nutsedge, Yellow / Nutsedge, Yellow plant response rating: scale 0 to 100 (0 no effect, 100 complete control); for Nutsedge, Yellow plant response rating: 31 g ai/ha
Procedure, shortened: as §2

corn [5] = test: Test C postemergence; format: in vivo, Zea mays; settings: for Plant response rating (0 to 100), Corn: 16 g ai/ha, 0 is no effect, 100 is complete control; for Plant response rating, Corn / Corn plant response rating: scale 0 to 100 (0 no effect, 100 complete control); for Corn plant response rating: 31 g ai/ha
Procedure, shortened: as §2

Italian ryegrass = test: Test A preemergence; format: in vivo, Lolium multiflorum
Procedure, shortened: as §1

large (Lg) crabgrass [6] = test: Test A preemergence; format: in vivo, Digitaria sanguinalis; settings: for Crabgrass, Large plant response rating (0 to 100 scale): 125 g ai/ha
Procedure, shortened: as §1

velvetleaf = test: Test A postemergence; format: in vivo, Abutilon theophrasti; settings: for Velvetleaf plant response rating: 125 g ai/ha
Procedure, shortened: as §1

[7] = 500 g ai/ha, 0 to 100 scale where 0 is no effect and 100 is complete control
[8] = 125 g ai/ha, 0 to 100 scale where 0 is no effect and 100 is complete control
[9] = 125 g ai/ha, postemergence, visual rating
[10] = 1000 g ai/ha, 0 to 100 scale, 0 no effect, 100 complete control
[11] = 1000 g ai/ha, 0 to 100 scale, 0 no effect, 100 complete control, approx. 10 days
[12] = 31 g ai/ha, 0 to 100 scale, 0 no effect, 100 complete control
[13] = 31 g ai/ha, 0 to 100 scale where 0 is no effect and 100 is complete control, visual, approximately 10 days
[14] = postemergence, visual rating, 13 to 15 days
[15] = Postemergence, 62 g ai/ha, 13 to 15 days
[16] = 0 to 100 scale where 0 is no effect and 100 is complete control

| SMILES | Plant response rating, Barnyardgrass (barnyardgrass; [7]) | Plant response rating (0 to 100), Foxtail, Giant (giant foxtail; postemergence) | Plant response rating, Foxtail, Giant (giant foxtail; [9]) | Plant response rating, Foxtail, Giant (giant foxtail; Postemergence, 62 g ai/ha) | Plant response rating (0 to 100), Crabgrass, Large (large (Lg) crabgrass [3]; postemergence) | Plant response rating, Crabgrass, Large (large (Lg) crabgrass [3]; [9]) | Plant response rating, Crabgrass, Large (large (Lg) crabgrass [3]; Postemergence, 62 g ai/ha) | Plant response rating (0 to 100), Johnsongrass (johnsongrass; postemergence) | Plant response rating, Johnsongrass (johnsongrass; [9]) | Plant response rating, Johnsongrass (johnsongrass; Postemergence, 62 g ai/ha) | Plant response rating, Corn (corn [4]; [7]) | Plant response rating (0 to 100), Wheat (wheat, winter; postemergence) | Plant response rating, Wheat (wheat, winter; [9]) | Plant response rating, Wheat (wheat, winter; Postemergence, 62 g ai/ha) | Plant response rating (0 to 100), Nutsedge, Yellow (yellow nutsedge; postemergence) | Plant response rating, Nutsedge, Yellow (yellow nutsedge; [9]) | Plant response rating, Nutsedge, Yellow (yellow nutsedge; Postemergence, 62 g ai/ha) | Plant response rating (0 to 100), Corn (corn [5]; postemergence) | Plant response rating, Corn (corn [5]; [9]) | Plant response rating, Corn (corn [5]; Postemergence, 62 g ai/ha) | other results |
| --- | --- | --- | --- | --- | --- | --- | --- | --- | --- | --- | --- | --- | --- | --- | --- | --- | --- | --- | --- | --- | --- |
| Clc1cnc(Oc2cccc(Br)c2-n2cc(I)nn2)nc1 [Compound 117] | 90 | 20 | 55 | 40 | 10 | 20 | 20 | 0 | 5 | 5 | 50 | 0 | 20 | 5 | 5 | 5 | 5 | 5 | 5 | 5 | Plant response rating, Ragweed (ragweed [1]; [7]): 100; Plant response rating, Ragweed (ragweed [2]; [8]): 20; Ragweed plant response rating (ragweed [2]; [7]): 60; Plant response rating, Barnyardgrass (barnyardgrass; [8]): 70; Plant response rating, Corn (corn [4]; [8]): 30; Plant response rating, Ryegrass, Italian (Italian ryegrass; [8]): 20; Ryegrass, Italian plant response rating (Italian ryegrass; [7]): 30 |
| FCc1cn(-c2ccccc2Oc2ncc(Cl)cn2)nn1 [Compound 123] |  | 0 | 20 | 20 | 0 | 5 | 5 | 10 | 10 | 10 |  | 0 | 5 | 0 | 5 | 10 | 10 | 0 | 5 | 5 | Plant response rating, Ragweed (ragweed [1]; [10]): 100; Ragweed plant response rating (ragweed [2]; [11]): 90; Plant response rating, Barnyardgrass (barnyardgrass; [10]): 100; Plant response rating, Corn (corn [4]; [10]): 70; Ryegrass, Italian plant response rating (Italian ryegrass; [11]): 70 |
| N#Cc1cnn(-c2c(Br)cccc2Oc2ncc(Cl)cn2)c1 [Compound 140] |  | 5 | 20 | 20 | 10 | 20 | 15 | 0 | 25 | 5 |  | 0 | 10 | 0 | 0 | 5 | 5 | 0 | 10 | 10 | Plant response rating, Ragweed (ragweed [1]; [12]): 60; Ragweed plant response rating (ragweed [1]; [8]): 70; Plant response rating, Ragweed (ragweed [2]; [13]): 30; Plant response rating, Ragweed (ragweed [2]; [8]): 70; Plant response rating, Barnyardgrass (barnyardgrass; [12]): 30; Barnyardgrass plant response rating (barnyardgrass; [8]): 70; Plant response rating, Corn (corn [4]; [12]): 20; Corn plant response rating (corn [4]; [8]): 30; Plant response rating, Ryegrass, Italian (Italian ryegrass; [13]): 0; Plant response rating, Ryegrass, Italian (Italian ryegrass; [8]): 0 |
| Clc1cnc(Oc2ccccc2-n2cc(Br)nn2)nc1 [Compound 223] |  | 5 | 5 |  | 5 | 5 |  | 0 | 5 |  |  | 0 | 5 |  | 5 | 5 |  | 5 | 5 |  | Plant response rating, Barnyardgrass (barnyardgrass; [10]): 100; Crabgrass, Large plant response rating (large (Lg) crabgrass [6]; [11]): 100; Foxtail, Giant plant response rating (giant foxtail; [14]): 5; Plant response rating, Foxtail, Giant (giant foxtail; [15]): 5; Crabgrass, Large plant response rating (large (Lg) crabgrass [3]; [14]): 5; Plant response rating, Crabgrass, Large (large (Lg) crabgrass [3]; [15]): 5; Johnsongrass plant response rating (johnsongrass; [14]): 0; Plant response rating, Johnsongrass (johnsongrass; [15]): 0; Plant response rating, Corn (corn [4]; [10]): 60; Wheat plant response rating (wheat, winter; [14]): 0; Plant response rating, Wheat (wheat, winter; [15]): 0; Nutsedge, Yellow plant response rating (yellow nutsedge; [14]): 5; Plant response rating, Nutsedge, Yellow (yellow nutsedge; [15]): 5; Plant response rating, Velvetleaf (velvetleaf; [10]): 100; Corn plant response rating (corn [5]; [14]): 5; Plant response rating, Corn (corn [5]; [15]): 5 |
| Fc1cnc(Oc2ccccc2-n2cc(C(F)F)cn2)nc1 [Compound 228] | 90 | 0 | 5 |  | 0 | 5 |  | 5 | 10 |  | 10 | 0 | 0 |  | 0 | 5 |  | 0 | 5 |  | Barnyardgrass plant response rating (barnyardgrass; [8]): 10; Crabgrass, Large plant response rating (0 to 100 scale) (large (Lg) crabgrass [6]): 90; Crabgrass, Large plant response rating (large (Lg) crabgrass [6]; [7]): 100; Foxtail, Giant plant response rating (giant foxtail; [14]): 0; Plant response rating, Foxtail, Giant (giant foxtail; [15]): 0; Crabgrass, Large plant response rating (large (Lg) crabgrass [3]; [14]): 5; Plant response rating, Crabgrass, Large (large (Lg) crabgrass [3]; [15]): 5; Johnsongrass plant response rating (johnsongrass; [14]): 0; Plant response rating, Johnsongrass (johnsongrass; [15]): 5; Corn plant response rating (corn [4]; [8]): 50; Wheat plant response rating (wheat, winter; [14]): 0; Plant response rating, Wheat (wheat, winter; [15]): 0; Nutsedge, Yellow plant response rating (yellow nutsedge; [14]): 0; Plant response rating, Nutsedge, Yellow (yellow nutsedge; [15]): 5; Velvetleaf plant response rating (velvetleaf; [16]): 100; Plant response rating, Velvetleaf (velvetleaf; [7]): 100; Corn plant response rating (corn [5]; [14]): 0; Plant response rating, Corn (corn [5]; [15]): 0 |
| FC(F)c1cnn(-c2c(Br)cccc2Oc2ncc(Cl)cn2)c1 [Compound 232] | 90 | 5 | 15 |  | 5 | 5 |  | 0 | 5 |  | 90 | 0 | 5 |  | 5 | 5 |  | 5 | 15 |  | Barnyardgrass plant response rating (barnyardgrass; [8]): 30; Crabgrass, Large plant response rating (0 to 100 scale) (large (Lg) crabgrass [6]): 90; Crabgrass, Large plant response rating (large (Lg) crabgrass [6]; [7]): 100; Foxtail, Giant plant response rating (giant foxtail; [14]): 5; Plant response rating, Foxtail, Giant (giant foxtail; [15]): 5; Crabgrass, Large plant response rating (large (Lg) crabgrass [3]; [14]): 5; Plant response rating, Crabgrass, Large (large (Lg) crabgrass [3]; [15]): 5; Johnsongrass plant response rating (johnsongrass; [14]): 0; Plant response rating, Johnsongrass (johnsongrass; [15]): 5; Corn plant response rating (corn [4]; [8]): 30; Wheat plant response rating (wheat, winter; [14]): 0; Plant response rating, Wheat (wheat, winter; [15]): 0; Nutsedge, Yellow plant response rating (yellow nutsedge; [14]): 5; Plant response rating, Nutsedge, Yellow (yellow nutsedge; [15]): 5; Velvetleaf plant response rating (velvetleaf; [16]): 80; Plant response rating, Velvetleaf (velvetleaf; [7]): 100; Corn plant response rating (corn [5]; [14]): 10; Plant response rating, Corn (corn [5]; [15]): 10 |
